The record followed here is ChEMBL document CHEMBL4190355, “Allosteric Modulators of the M4 Muscarinic Acetylcholine Receptor” (ACS Med Chem Lett, 2017).

The target in the assay is T1, Muscarinic acetylcholine receptor M4 (Homo sapiens) (UniProt P08173).
T1 sequence (whole entry): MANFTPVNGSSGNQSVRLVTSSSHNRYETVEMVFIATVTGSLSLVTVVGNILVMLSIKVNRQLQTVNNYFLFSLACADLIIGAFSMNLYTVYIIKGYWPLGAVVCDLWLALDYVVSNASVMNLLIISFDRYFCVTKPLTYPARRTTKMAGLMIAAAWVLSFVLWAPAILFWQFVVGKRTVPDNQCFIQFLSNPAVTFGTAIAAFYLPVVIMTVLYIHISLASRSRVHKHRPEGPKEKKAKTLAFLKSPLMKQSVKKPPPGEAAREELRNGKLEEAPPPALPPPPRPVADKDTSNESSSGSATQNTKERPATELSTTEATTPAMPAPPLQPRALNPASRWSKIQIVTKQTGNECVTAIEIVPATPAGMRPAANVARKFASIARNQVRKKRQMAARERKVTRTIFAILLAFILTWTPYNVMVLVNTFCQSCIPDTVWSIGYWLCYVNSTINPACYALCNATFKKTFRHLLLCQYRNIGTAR
As to the kind of experiment: Positive allosteric modulation of human muscarinic acetylcholine receptor M4 expressed in CHOK1 cells assessed as increase in acetylcholine-induced […] preincubated for 4 mins followed by acetylcholine addition measured for 3.5 mins by FLIPR assay. Type of assay: functional, cell-based.

Regarding `CCN1C(=O)c2c(nc(N3CCC(Oc4ccc5c(c4)COC5)CC3)c(C)c2C)[C@@H]1CO`, the IP came to 240 µM.

`Cc1cc2c(nc1N1CCC(Oc3ccc4c(n3)COC4)CC1)[C@H](CO)N(C)C2=O`: the IP came out at 30 µM.

On to `Cc1cc2c(nc1N1CCC(Oc3cnc4[nH]nc(C)c4c3)CC1)CNC2=O`, for which the IP was 6.07 µM.

Regarding `COCCOC1CCN(c2nc3c(cc2C)C(=O)NC3)CC1`, the IP stood at 11.2 µM.

On to `COc1ccc(O[C@@H]2CCN(c3nc4c(cc3C)C(=O)N(C)[C@H]4CO)C[C@H]2F)cn1`, for which the IP worked out at 8.06 µM.

Take `Cc1cc2c(nc1N1CCC(OC[C@@]3(C)C[C@H]3C#N)CC1)CNC2=O`: the IP is 30 µM.

`CCOc1ccc(OC2CCN(c3nc4c(cc3C)C(=O)N(C)[C@H]4CO)CC2)cn1`: the IP amounted to 8.62 µM.

For `Cc1cc2c(nc1N1CCC(OC3CCOC3)CC1)CNC2=O` (centres undefined), the IP came to 11.3 µM.

Take `COc1ccc(O[C@H]2CCN(c3nc4c(cc3C)C(=O)NC4)C[C@H]2C)cn1`: the IP is 30 µM.
